In US20230091047A1 (priority 2019, published 2023):

Key:
[1] = system: HBV (HepG2.117 cell line, inducibly HBV producing); experiment: Anti-HBV activity: intracellular HBV DNA by real-time PCR in HepG2.117 cells after 3 days of treatment; assay type: cell-based, hepatitis B virus; conditions: Hepatitis B virus, HepG2.117, 72 h, HepG2.117 cells, 3 days of treatment, intracellular HBV DNA by real-time PCR; mean value; read-out: EC50 (μM, mean value)
Summary of the method: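 First, HBV replication is induced in HepG2.117 cells by doxycycline absence. Next, serially diluted compound is added for 3 days. Finally, intracellular HBV DNA is quantified by HBV-specific real-time PCR.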

[2] = in vitro; assay type: cell-based; conditions: human, HepG2 or HepG2.117 cells, 3-days incubation (unmarked values), ATPlite; mean value
Summary of the method: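 Luminescent ATP quantitation served as the viability endpoint following a 3- or 4-day incubation with test compounds.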

Work on CC(C)Nc1nc2c(c(=O)n1-c1ccc(N3CCOCC3)cc1)C[C@@H](C)N(C(=O)c1ccc(Cl)c(Cl)c1)C2 [Compound C218, (6R)-7-(3,4-dichlorobenzoyl)-6-methyl-3-[4-(morpholin-4-yl)phenyl]-2-[(propan-2-yl)amino]-5,6,7,8-tetrahydropyrido[3,4-d]pyrimidin-4(3H)-one] yielded an EC50 [1] of 0.16 µM and a CC50 at 3 days [2] of over 50 µM.
For CNC(=O)c1ccc(-n2c(NC(C)C)nc3c(c2=O)CCN(C(=O)c2ccc(Cl)c(Cl)c2)C3)cc1F [Compound C219, 4-[7-(3,4-dichlorobenzoyl)-4-oxo-2-[(propan-2-yl)amino]-5,6,7,8-tetrahydropyrido[3,4-d]pyrimidin-3(4H)-yl]-2-fluoro-N-methylbenzamide], the EC50 [1] was 0.28 µM and the CC50 at 3 days [2] was over 50 µM.
In the case of CNC(=O)c1ccc(-n2c(NCc3ccc(OC)cc3)nc3c(c2=O)CCN(C(=O)c2ccc(Cl)c(Cl)c2)C3)cc1F [Compound C220, 4-[7-(3,4-dichlorobenzoyl)-2-{[(4-methoxyphenyl)methyl]amino}-4-oxo-5,6,7,8-tetrahydropyrido[3,4-d]pyrimidin-3(4H)-yl]-2-fluoro-N-methylbenzamide], the EC50 [1] is reported as 0.42 µM and the CC50 at 3 days [2] is reported as over 50 µM.
Cc1cc(C(=O)N2CCc3c(nc(NC(C)C)n(-c4ccc(S(C)(=O)=O)cc4)c3=O)C2)ccc1Cl [Compound C221, 7-(4-chloro-3-methylbenzoyl)-3-[4-(methanesulfonyl)phenyl]-2-[(propan-2-yl)amino]-5,6,7,8-tetrahydropyrido[3,4-d]pyrimidin-4(3H)-one] showed an EC50 [1] of 1.58 µM and a CC50 at 3 days [2] of over 50 µM.
For CC(C)Nc1nc2c(c(=O)n1-c1ccc(S(C)(=O)=O)cc1)CCN(C(=O)c1ccc(Cl)c(C(C)C)c1)C2 [Compound C222, 7-[4-chloro-3-(propan-2-yl)benzoyl]-3-[4-(methanesulfonyl)phenyl]-2-[(propan-2-yl)amino]-5,6,7,8-tetrahydropyrido[3,4-d]pyrimidin-4(3H)-one], the EC50 [1] was 1.45 µM and the CC50 at 3 days [2] was over 50 µM.
CC(C)Nc1nc2c(c(=O)n1-c1ccc(S(C)(=O)=O)cc1)CCN(C(=O)c1ccc(Cl)c(Cl)n1)C2 [Compound C223, 7-(5,6-dichloropyridine-2-carbonyl)-3-[4-(methanesulfonyl)phenyl]-2-[(propan-2-yl)amino]-5,6,7,8-tetrahydropyrido[3,4-d]pyrimidin-4(3H)-one] gave an EC50 [1] of over 10 µM and a CC50 at 3 days [2] of over 50 µM.
Compound Cc1coc2ccc(C(=O)N3CCc4c(nc(NC(C)C)n(-c5ccc(S(C)(=O)=O)cc5)c4=O)C3)cc12 [Compound C224, 3-[4-(methanesulfonyl)phenyl]-7-(3-methyl-1-benzofuran-5-carbonyl)-2-[(propan-2-yl)amino]-5,6,7,8-tetrahydropyrido[3,4-d]pyrimidin-4(3H)-one] has an EC50 [1] of 6.71 µM and a CC50 at 3 days [2] of over 50 µM.
CC(C)Nc1nc2c(c(=O)n1-c1ccc(S(C)(=O)=O)cc1)CCN(C(=O)c1ccc(Cl)c(C3CC3)c1)C2 [Compound C225, 7-(4-chloro-3-cyclopropylbenzoyl)-3-[4-(methanesulfonyl)phenyl]-2-[(propan-2-yl)amino]-5,6,7,8-tetrahydropyrido[3,4-d]pyrimidin-4(3H)-one] gave an EC50 [1] of 3.46 µM and a CC50 at 3 days [2] of over 50 µM.
Compound COC(=O)c1ccc(-n2c(NC(C)C)nc3c(c2=O)C[C@@H](C)N(C(=O)c2ccc(Cl)c(Cl)c2)C3)cn1 [Compound C226] has an EC50 [1] of 2.3 µM and a CC50 at 3 days [2] of over 50 µM.
For CC(C)NC(=O)c1ccc(-n2c(NC(C)C)nc3c(c2=O)C[C@@H](C)N(C(=O)c2ccc(Cl)c(Cl)c2)C3)cn1 [Compound C227, 5-[(6R)-7-(3,4-dichlorobenzoyl)-6-methyl-4-oxo-2-[(propan-2-yl)amino]-5,6,7,8-tetrahydropyrido[3,4-d]pyrimidin-3(4H)-yl]-N-(propan-2-yl)pyridine-2-carboxamide], the EC50 [1] was 0.18 µM and the CC50 at 3 days [2] was over 50 µM.
CC(C)Nc1nc2c(c(=O)n1-c1ccc(Cl)nc1)C[C@@H](C)N(C(=O)c1ccc(Cl)c(Cl)c1)C2 [Compound C228, (6R)-3-(6-chloropyridin-3-yl)-7-(3,4-dichlorobenzoyl)-6-methyl-2-[(propan-2-yl)amino]-5,6,7,8-tetrahydropyrido[3,4-d]pyrimidin-4(3H)-one] showed an EC50 [1] of 0.27 µM and a CC50 at 3 days [2] of over 50 µM.
CC(C)Nc1nc2c(c(=O)n1-c1ccc3c(c1)C(=O)NC3)C[C@@H](C)N(C(=O)c1ccc(Cl)c(Cl)c1)C2 [Compound C229, (6R)-7-(3,4-dichlorobenzoyl)-6-methyl-3-(3-oxo-2,3-dihydro-1H-isoindol-5-yl)-2-[(propan-2-yl)amino]-5,6,7,8-tetrahydropyrido[3,4-d]pyrimidin-4(3H)-one] showed an EC50 [1] of 0.11 µM and a CC50 at 3 days [2] of over 50 µM.
Work on CCOC(=O)c1ccc(-n2c(NC(CCO)C3CC3)nc3c(c2=O)C[C@@H](C)N(C(=O)c2ccc(Cl)c(Cl)c2)C3)cc1 (stereo partly drawn) [Compound C230, ethyl 4-[(6R)-2-[(1-cyclopropyl-3-hydroxypropyl)amino]-7-(3,4-dichlorobenzoyl)-6-methyl-4-oxo-5,6,7,8-tetrahydropyrido[3,4-d]pyrimidin-3(4H)-yl]benzoate] yielded an EC50 [1] of 1.7 µM and a CC50 at 3 days [2] of over 50 µM.
In the case of CC(C)Nc1nc2c(c(=O)n1-c1ccc3c(c1)CNC3=O)C[C@@H](C)N(C(=O)c1ccc(Cl)c(Cl)c1)C2 [Compound C231, (6R)-7-(3,4-dichlorobenzoyl)-6-methyl-3-(1-oxo-2,3-dihydro-1H-isoindol-5-yl)-2-[(propan-2-yl)amino]-5,6,7,8-tetrahydropyrido[3,4-d]pyrimidin-4(3H)-one], the EC50 [1] is reported as 0.15 µM and the CC50 at 3 days [2] is reported as over 50 µM.
CNC(=O)c1cccc(-n2c(NC(C)C)nc3c(c2=O)C[C@@H](C)N(C(=O)c2ccc(Cl)c(Cl)c2)C3)c1 [Compound C232, 3-[(6R)-7-(3,4-dichlorobenzoyl)-6-methyl-4-oxo-2-[(propan-2-yl)amino]-5,6,7,8-tetrahydropyrido[3,4-d]pyrimidin-3(4H)-yl]-N-methylbenzamide] showed an EC50 [1] of 0.15 µM and a CC50 at 3 days [2] of over 50 µM.
COC(=O)C12CC(n3c(NC(C)C)nc4c(c3=O)C[C@@H](C)N(C(=O)c3ccc(Cl)c(Cl)c3)C4)(C1)C2 [Compound C236] showed an EC50 [1] of over 50 µM and a CC50 at 3 days [2] of over 50 µM.
In the case of CC(C)Nc1nc2c(c(=O)n1-c1ccc(-c3ncccn3)cc1)C[C@@H](C)N(C(=O)c1ccc(Cl)c(Cl)c1)C2 [Compound C237, (6R)-7-(3,4-dichlorobenzoyl)-6-methyl-2-[(propan-2-yl)amino]-3-[4-(pyrimidin-2-yl)phenyl]-5,6,7,8-tetrahydropyrido[3,4-d]pyrimidin-4(3H)-one], the EC50 [1] is reported as 0.23 µM and the CC50 at 3 days [2] is reported as over 50 µM.
Work on CC(C)Nc1nc2c(c(=O)n1-c1ccc(-c3nccs3)cc1)CCN(C(=O)c1ccc(Cl)c(Cl)c1)C2 [Compound C238, 7-(3,4-dichlorobenzoyl)-2-[(propan-2-yl)amino]-3-[4-(1,3-thiazol-2-yl)phenyl]-5,6,7,8-tetrahydropyrido[3,4-d]pyrimidin-4(3H)-one] yielded an EC50 [1] of 0.56 µM and a CC50 at 3 days [2] of over 50 µM.
CC(C)Nc1nc2c(c(=O)n1-c1ccc(-c3nccs3)cc1)C[C@@H](C)N(C(=O)c1ccc(Cl)c(Cl)c1)C2 [Compound C240, (6R)-7-(3,4-dichlorobenzoyl)-6-methyl-2-[(propan-2-yl)amino]-3-[4-(1,3-thiazol-2-yl)phenyl]-5,6,7,8-tetrahydropyrido[3,4-d]pyrimidin-4(3H)-one] gave an EC50 [1] of 0.13 µM and a CC50 at 3 days [2] of over 50 µM.
CC(C)Nc1nc2c(c(=O)n1-c1ccc(-c3cc[nH]n3)cc1)C[C@@H](C)N(C(=O)c1ccc(Cl)c(Cl)c1)C2 [Compound C241, (6R)-7-(3,4-dichlorobenzoyl)-6-methyl-2-[(propan-2-yl)amino]-3-[4-(1H-pyrazol-3-yl)phenyl]-5,6,7,8-tetrahydropyrido[3,4-d]pyrimidin-4(3H)-one] gave an EC50 [1] of 0.19 µM and a CC50 at 3 days [2] of 33.1 µM.
With Cc1nnc(-c2ccc(-n3c(NC(C)C)nc4c(c3=O)C[C@@H](C)N(C(=O)c3ccc(Cl)c(Cl)c3)C4)cc2)o1 [Compound C242, (6R)-7-(3,4-dichlorobenzoyl)-6-methyl-3-[4-(5-methyl-1,3,4-oxadiazol-2-yl)phenyl]-2-[(propan-2-yl)amino]-5,6,7,8-tetrahydropyrido[3,4-d]pyrimidin-4(3H)-one] the EC50 [1] was 0.28 µM and the CC50 at 3 days [2] was over 50 µM.
Cc1cc(-c2ccc(-n3c(NC(C)C)nc4c(c3=O)C[C@@H](C)N(C(=O)c3ccc(Cl)c(Cl)c3)C4)cc2)n[nH]1 [Compound C243, (6R)-7-(3,4-dichlorobenzoyl)-6-methyl-3-[4-(5-methyl-1H-pyrazol-3-yl)phenyl]-2-[(propan-2-yl)amino]-5,6,7,8-tetrahydropyrido[3,4-d]pyrimidin-4(3H)-one] gave an EC50 [1] of 0.23 µM and a CC50 at 3 days [2] of 28.7 µM.
Cc1nc(-c2ccc(-n3c(NC(C)C)nc4c(c3=O)C[C@@H](C)N(C(=O)c3ccc(Cl)c(Cl)c3)C4)cc2)c[nH]1 [Compound C244, (6R)-7-(3,4-dichlorobenzoyl)-6-methyl-3-[4-(2-methyl-1H-imidazol-4-yl)phenyl]-2-[(propan-2-yl)amino]-5,6,7,8-tetrahydropyrido[3,4-d]pyrimidin-4(3H)-one] showed an EC50 [1] of 0.12 µM and a CC50 at 3 days [2] of 22.9 µM.
Cc1nnc(-c2ccc(-n3c(NC(C)C)nc4c(c3=O)C[C@@H](C)N(C(=O)c3ccc(Cl)c(Cl)c3)C4)cc2)s1 [Compound C245, (6R)-7-(3,4-dichlorobenzoyl)-6-methyl-3-[4-(5-methyl-1,3,4-thiadiazol-2-yl)phenyl]-2-[(propan-2-yl)amino]-5,6,7,8-tetrahydropyrido[3,4-d]pyrimidin-4(3H)-one] showed an EC50 [1] of 0.17 µM and a CC50 at 3 days [2] of over 50 µM.
